Values quoted from earlier work as cited in patent publication EP4755392A1, “ORAL PREPARATION FOR IMPROVING MINIMAL ERYTHEMA DOSE” (Mitsubishi Corporation Life Sciences Limited, priority 2023, dated 2025).

Conditions: after 6 months, ingesting 250 mg or more

N[C@@H](CCC(=O)N[C@@H](CS)C(=O)NCC(=O)O)C(=O)O [glutathione]
blood glutathione amount increased: 17%
